Test results as given in patent US4303664A, “Novel penicillin derivatives containing a coumarin nucleus and medicines containing the same” (Teijin Limited, priority 1978, dated 1981).
In brackets after ≈: the same amount, converted by molar mass.

Legend:
[1] = system: Klebsiella neumoniae ATCC10031; assay: Bactericidal test (MIC), Klebsiella neumoniae ATCC10031; assay type: cell-based; settings: (6) Klebsiella neumoniae ATCC10031; read-out: MIC
Description: (§1) Results of bactericidal tests (MIC, r/ml) on the penicillin derivatives of this invention prepared in the above examples are shown in the following table.

[2] = system: Pseudomonas aeruginosa 130; assay: Bactericidal test (MIC), Pseudomonas aeruginosa 130; assay type: cell-based; settings: (16) Pseudomonas aeruginosa 130
Description: as §1

[3] = system: Pseudomonas aeruginosa IFO-3080; assay: Bactericidal test (MIC), Pseudomonas aeruginosa IFO-3080; assay type: cell-based; settings: IFO3080; (12) Pseudomonas aeruginosa IFO-3080; read-out: MIC
Description: as §1

[4] = system: Escherichia Coli NIHJ JC-2; assay: Bactericidal test (MIC), Escherichia Coli NIHJ JC-2; assay type: cell-based; settings: NIHJJC2; (5) Escherichia Coli NIHJ JC-2
Description: as §1

[5] = Rates of protein fixation (human serum protein); assay type: in vitro ADME; settings: read-out: Rate of protein fixation (converted)
Description: Rates of protein fixation (human serum protein) of the penicillin derivatives of this invention are illustrated as follows: […]

[6] = system: Morganella var. G-2; assay: Bactericidal test (MIC), Morganella var. G-2; assay type: cell-based; settings: VAR.G2; (9) Morganella var. G-2; read-out: MIC
Description: as §1

[7] = system: Salmonella typhimurium G-20; assay: Bactericidal test (MIC), Salmonella typhimurium G-20; assay type: cell-based; settings: Salmonella enterica; (4) Salmonella typhimurium G-20
Description: as §1

[8] = system: Bacillus subtilis; assay: Bactericidal test (MIC), Bacillus subtilis; assay type: cell-based; settings: (3) Bacillus subtilis
Description: as §1

[9] = system: Staphylococcus aureus 1248; assay: Bactericidal test (MIC), Staphylococcus aureus 1248; assay type: cell-based; settings: (2) Staphylococcus aureus 1248; read-out: MIC
Description: as §1

[10] = system: Enterobacter cloacae IF012937; assay: Bactericidal test (MIC), Enterobacter cloacae IF012937; assay type: cell-based; settings: (8) Enterobacter cloacae IF012937
Description: as §1

[11] = system: Pseudomonas aeruginosa Tid-53; assay: Bactericidal test (MIC), Pseudomonas aeruginosa Tid-53; assay type: cell-based; settings: TID53; (14) Pseudomonas aeruginosa Tid-53
Description: as §1

[12] = system: Serratia G-18; assay: Bactericidal test (MIC), Serratia G-18; assay type: cell-based; settings: G18; (11) Serratia G-18; read-out: MIC
Description: as §1

[13] = system: Rettgerella var. Tid-21; assay: Bactericidal test (MIC), Rettgerella var. Tid-21; assay type: cell-based; settings: (10) Rettgerella var. Tid-21; read-out: MIC
Description: as §1

[14] = system: Staphylococcus aureus 209-p; assay: Bactericidal test (MIC), Staphylococcus aureus 209-p; assay type: cell-based; settings: (1) Staphylococcus aureus 209-p
Description: as §1

[15] = Acute toxicity values [(LD50), mouse]; settings: in vivo
Description: Acute toxicity values [(LD50), mouse] of some penicillin derivatives of this invention are illustrated in the following table.

[16] = system: Enterobactor cloacae 147; assay: Bactericidal test (MIC), Enterobactor cloacae 147; assay type: cell-based; settings: (7) Enterobactor cloacae 147
Description: as §1

[17] = system: Pseudomonas aeruginosa 0-37; assay: Bactericidal test (MIC), Pseudomonas aeruginosa 0-37; assay type: cell-based; settings: 037; (13) Pseudomonas aeruginosa 0-37
Description: as §1

[18] = system: Pseudomonas aeruginosa GN-315; assay: Bactericidal test (MIC), Pseudomonas aeruginosa GN-315; assay type: cell-based; settings: GN315; (15) Pseudomonas aeruginosa GN-315
Description: as §1

CC(=O)Oc1ccc2oc(=O)c(C(=O)N[C@@H](C(=O)N[C@@H]3C(=O)N4[C@@H]3SC(C)(C)[C@@H]4C(=O)O)c3ccccc3)cc2c1 [Example 9, D(-)-α-(6-Acetoxycoumarin-3-carbonamido)benzylpenicillin]
MIC [1]: < 0.4 µg/mL | MIC [2]: < 0.4 µg/mL | MIC [3]: 0.8 µg/mL (≈ 1.38 µM) | MIC [4]: < 0.4 µg/mL | fraction unbound [5]: 0.2 | MIC [6]: 6.25 µg/mL (≈ 10.8 µM) | MIC [7]: < 0.4 µg/mL | MIC [8]: < 0.4 µg/mL | MIC [9]: 3.13 µg/mL (≈ 5.4 µM) | MIC [10]: 25 µg/mL (≈ 43.1 µM) | MIC [11]: 6.25 µg/mL (≈ 10.8 µM) | MIC [12]: 25 µg/mL (≈ 43.1 µM) | MIC [13]: 3.13 µg/mL (≈ 5.4 µM) | MIC [14]: < 0.4 µg/mL | LD50 ([15]; Oral): > 4000 mg/kg | LD50 ([15]; ip, Intraabdominal): 2000 mg/kg | MIC [16]: 3.13 µg/mL (≈ 5.4 µM) | MIC [17]: 25 µg/mL (≈ 43.1 µM) | MIC [18]: 6.25 µg/mL (≈ 10.8 µM)
